# Results published in patent US11976075B2, “Inhibitors of the MYST family of lysine acetyl transferases” (Isosterix, Inc., priority 2022, dated 2024).
# Read-outs that look alike come from different tables or passages of the source.
# Target: T1, Recombinant KAT6A/MOZ (488-778) protein (Homo sapiens, UniProt Q92794)
# T1 construct: Recombinant KAT6A/MOZ (488-778) protein (Active motif, Catalog #81223); purchased Active Motif 81223
# Test: Kat6a AlphaLISA Inhibition Screening Assay
# Format: biochemical
# Outline: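 Recombinant KAT6A (488-778), 25 nM, was preincubated with compound (10-point dose response) for 60 or 10 min. It then reacted 120 min at room temperature with 200 nM biotin-H3(1-21) peptide and 400 nM acetyl-CoA, pH 8.0, with 330 nM TSA present. Acetylation was detected by AlphaLISA (anti-acetyl-lysine acceptor, streptavidin donor beads).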
# [1] = 60′ pre-incubation, Table 3, read-out: Kat6A Biochemical assay: IC50
# [2] = 60′ pre-incubation, Table 2, read-out: Kat6A biochemical assay: IC50
# [3] = 10′ pre-incubation, Table 3, read-out: Kat6A Biochemical assay: IC50
# [4] = 10′ pre-incubation, Table 2, read-out: Kat6A biochemical assay: IC50
# T1 sequence (Q92794 488-778): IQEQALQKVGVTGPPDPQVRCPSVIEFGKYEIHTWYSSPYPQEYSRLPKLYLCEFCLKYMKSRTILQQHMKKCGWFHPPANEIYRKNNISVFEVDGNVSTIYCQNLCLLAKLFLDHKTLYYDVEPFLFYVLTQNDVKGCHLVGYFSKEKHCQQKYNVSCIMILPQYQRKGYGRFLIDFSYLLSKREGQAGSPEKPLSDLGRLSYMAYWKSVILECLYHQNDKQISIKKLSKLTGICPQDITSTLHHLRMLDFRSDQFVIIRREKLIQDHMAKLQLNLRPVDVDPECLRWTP
Compound,IC50 [1],IC50 [2],further results
CCC(=O)NCc1ccn(Cc2cc(OC)c3c(NS(=O)(=O)CC4CCCCC4)noc3c2)n1 [compound 129],–,–,IC50 [3]: ≤ 10 µM
C#CC(=O)NCc1ccnc(-c2cc(C)cc(C(=O)NNS(=O)(=O)c3ccccc3F)c2)c1 [compound 13],–,–,IC50 [4]: ≤ 10 µM
"C#CC(=O)N1CCC(c2cccc(-c3cc(OC)c4c(NS(=O)(=O)c5c(OC)cccc5OC)noc4c3)c2)C1 (centres unmarked) [compound 87, 2,6-dimethoxy-N-(4-methoxy-6-(3-(1-propioloylpyrrolidin-3-yl)phenyl)benzo[d]isoxazol-3-yl)benzenesulfonamide]",≤ 10 µM,–,–
"C=CC(=O)N1CCC(C(=O)NCc2ccc3cc(C(=O)NS(=O)(=O)c4ccccc4F)oc3c2)CC1 [Synthetic Example 14, 1-acryloyl-N-((2-(((2-fluorophenyl)sulfonyl)carbamoyl)benzofuran-6-yl)methyl)piperidine-4-carboxamide]",–,–,IC50 [4]: 20 to 50 µM
"C#CC(=O)N1CCN(c2cc(O)cc(-c3cc(OC)c4c(NS(=O)(=O)c5c(OC)cccc5OC)noc4c3)c2)CC1 [compound 115, N-(6-(3-hydroxy-5-(4-propioloylpiperazin-1-yl)phenyl)-4-methoxybenzo[d]isoxazol-3-yl)-2,6-dimethoxybenzenesulfonamide]",≤ 10 µM,–,–
"C=CC(=O)N1CCC(c2ccnc(-c3cc(C)cc(C(=O)NNS(=O)(=O)c4ccccc4F)c3)c2)CC1 [Synthetic Example 41, N-(3-(4-(1-acryloylpiperidin-4-yl)pyridin-2-yl)-5-methylbenzoyl)-2-fluorobenzenesulfonohydrazide]",–,≤ 10 µM,–
"COc1cc(Cn2cc3c(n2)CNC3)cc2onc(NS(=O)(=O)CC3CCCCC3)c12 [Synthetic Example 28B, 1-cyclohexyl-N-(6-((5,6-dihydropyrrolo[3,4-c]pyrazol-2(4H)-yl)methyl)-4-methoxybenzo[d]isoxazol-3-yl)methanesulfonamide]",–,10 to 20 µM,–
"COc1cc(Cn2cccn2)cc2nnc(NS(=O)(=O)CC3CCCCC3)n12 [compound 127, N-(7-((1H-pyrazol-1-yl)methyl)-5-methoxy-[1,2,4]triazolo[4,3-a]pyridin-3-yl)-1-cyclohexylmethanesulfonamide]",–,–,IC50 [3]: ≤ 10 µM
"C#CC(=O)N1CCN(c2cccc(-c3cc(OC)c4c(NS(=O)(=O)c5c(OC)cccc5OC)noc4c3)c2)CC1 [compound 71, 2,6-dimethoxy-N-(4-methoxy-6-(3-(4-propioloylpiperazin-1-yl)phenyl)benzo[d]isoxazol-3-yl) benzenesulfonamide]",–,≤ 10 µM,–
"COc1cc(Cn2cccn2)cc2[nH]nc(NS(=O)(=O)c3ccccc3F)c12 [compound 124, N-(6-((1H-pyrazol-1-yl)methyl)-4-methoxy-1H-indazol-3-yl)-2-fluorobenzenesulfonamide]",–,–,IC50 [3]: 20 to 50 µM
"C#CC(=O)N1CCN(c2cccc(-c3cc(OC)c4c(NS(=O)(=O)c5ccccc5OC)noc4c3)c2)CC1 [compound 74, 2-methoxy-N-(4-methoxy-6-(3-(4-propioloylpiperazin-1-yl)phenyl)benzo[d]isoxazol-3-yl)benzenesulfonamide]",≤ 10 µM,–,–
"COc1cccc(OC)c1S(=O)(=O)Nc1noc2cc(-c3cccc(N4CCN(C(=O)CCl)CC4)c3)cc(OC)c12 [compound 73, N-(6-(3-(4-(2-chloroacetyl)piperazin-1-yl)phenyl)-4-methoxybenzo[d]isoxazol-3-yl)-2,6-dimethoxybenzenesulfonamide]",≤ 10 µM,–,–
"C#CC(=O)N1CCCN(c2cnc(-c3cc(OC)c4c(NS(=O)(=O)c5cc(CC)ccc5OC)noc4c3)s2)CC1 [compound 104, 5-ethyl-2-methoxy-N-(4-methoxy-6-(5-(4-propioloyl-1,4-diazepan-1-yl)thiazol-2-yl)benzo[d]isoxazol-3-yl) benzenesulfonamide]",≤ 10 µM,–,–
"C#CC(=O)N1CCN(c2ncc(-c3cc(OC)c4c(NS(=O)(=O)c5c(OC)cccc5OC)noc4c3)s2)CC1 [compound 106, 2,6-dimethoxy-N-(4-methoxy-6-(2-(4-propioloylpiperazin-1-yl)thiazol-5-yl)benzo[d]isoxazol-3-yl) benzenesulfonamide]",≤ 10 µM,–,–
"C#CC(=O)N1CCN(c2ccnc(-c3cc(C)cc(C(=O)NNS(=O)(=O)c4ccccc4F)c3)c2)CC1 [compound 103, 2-fluoro-N′-(3-methyl-5-(4-(4-propioloylpiperazin-1-yl)pyridin-2-yl)benzoyl) benzenesulfonohydrazide]",≤ 10 µM,–,–
"COc1cccc(OC)c1S(=O)(=O)Nc1nn(C)c2cc(Cn3cccn3)cc(OC)c12 [compound 123, N-(6-((1H-pyrazol-1-yl)methyl)-4-methoxy-1-methyl-1H-indazol-3-yl)-2,6-dimethoxybenzenesulfonamide]",–,–,IC50 [3]: 10 to 20 µM

# Continued, in another order:
IC50 [1],IC50 [2],Compound,further results
≤ 10 µM,–,"COc1ccccc1S(=O)(=O)Nc1noc2cc(Cn3cc(CNS(=O)(=O)c4ccccc4)cn3)cc(OC)c12 [compound 79, 2-methoxy-N-(4-methoxy-6-((4-(phenylsulfonamidomethyl)-1H-pyrazol-1-yl)methyl)benzo[d]isoxazol-3-yl)benzenesulfonamide]",–
–,≤ 10 µM,"C=CS(=O)(=O)NCc1ccn(Cc2cc(OC)c3c(NS(=O)(=O)c4c(OC)cccc4OC)noc3c2)n1 [Synthetic Example 19, 2,6-dimethoxy-N-(4-methoxy-6-((3-(vinylsulfonamidomethyl)-1H-pyrazol-1-yl)methyl)benzo[d]isoxazol-3-yl)benzenesulfonamide]",–
≤ 10 µM,–,"C#CC(=O)NCc1cnn(Cc2cc(OC)c3c(NS(=O)(=O)c4ccccc4OC)n[nH]c3c2)c1 [compound 76, N-((1-((4-methoxy-3-((2-methoxyphenyl)sulfonamido)-1H-indazol-6-yl)methyl)-1H-pyrazol-4-yl)methyl)propiolamide]",–
–,≤ 10 µM,C#CC(=O)NCc1cnn(Cc2cc(OC)c3c(NS(=O)(=O)CC4CCCCC4)noc3c2)c1 [compound 5],–
–,≤ 10 µM,C#CC(=O)NC1CCN(Cc2cc(OC)c3c(NS(=O)(=O)c4ccccc4OC)noc3c2)CC1 [Synthetic Example 64],–
–,≤ 10 µM,"COC/C=C/C(=O)NCc1cnn(Cc2cc(OC)c3c(NS(=O)(=O)c4ccccc4OC)noc3c2)c1 [Synthetic Example 54, (E)-4-methoxy-N-((1-((4-methoxy-3-((2-methoxyphenyl)sulfonamido)benzo[d]isoxazol-6-yl)methyl)-1H-pyrazol-4-yl)methyl)but-2-enamide]",–
≤ 10 µM,–,"C#CC(=O)N1CCc2c(cnn2Cc2cc(OC)c3c(NS(=O)(=O)c4cc(CC)ccc4OC)noc3c2)C1 [105a, 5-ethyl-2-methoxy-N-(4-methoxy-6-((5-propioloyl-4,5,6,7-tetrahydro-1H-pyrazolo[4,3-c]pyridin-1-yl)methyl)benzo[d]isoxazol-3-yl)benzenesulfonamide]",–
–,≤ 10 µM,"C=CC(=O)NCc1cnn(Cc2cc(OC)c3c(NS(=O)(=O)CC4CCCCC4)noc3c2)c1 [Synthetic Example 4, N-((1-((3-((cyclohexylmethyl)sulfonamido)-4-methoxybenzo[d]isoxazol-6-yl)methyl)-1H-pyrazol-4-yl)methyl)acrylamide]",–
–,≤ 10 µM,"C#CC(=O)NCC(=O)NCc1cnn(Cc2cc(OC)c3c(NS(=O)(=O)c4ccccc4OC)noc3c2)c1 [Synthetic Example 60, N-(2-(((1-((4-methoxy-3-((2-methoxyphenyl)sulfonamido)benzo[d]isoxazol-6-yl)methyl)-1H-pyrazol-4-yl)methyl)amino)-2-oxoethyl)propiolamide]",–
–,≤ 10 µM,"C=CC(=O)NCc1cnn(Cc2cc(OC)c3c(NS(=O)(=O)c4ccccc4OC)noc3c2)c1 [Synthetic Example 51, N-((1-((4-methoxy-3-((2-methoxyphenyl)sulfonamido)benzo[d]isoxazol-6-yl)methyl)-1H-pyrazol-4-yl)methyl)acrylamide]",–
≤ 10 µM,–,"C=CS(=O)(=O)NCC(=O)NCc1cnn(Cc2cc(OC)c3c(NS(=O)(=O)c4cc(CC)ccc4OC)noc3c2)c1 [compound 93, N-((1-((3-((5-ethyl-2-methoxyphenyl)sulfonamido)-4-methoxybenzo[d]isoxazol-6-yl)methyl)-1H-pyrazol-4-yl)methyl)-2-(vinylsulfonamido) acetamide]",–
–,> 10 µM,"COc1ccccc1S(=O)(=O)Nc1noc2cc(CN3CCC(C(=O)NCC#N)CC3)cc(OC)c12 [Synthetic Example 63, N-(cyanomethyl)-1-((4-methoxy-3-((2-methoxyphenyl)sulfonamido)benzo[d]isoxazol-6-yl)methyl)piperidine-4-carboxamide]",–
≤ 10 µM,–,"C#CC(=O)N1CCc2nn(Cc3cc(OC)c4c(NS(=O)(=O)c5cc(CC)ccc5OC)noc4c3)cc2C1 [105b, 5-ethyl-2-methoxy-N-(4-methoxy-6-((5-propioloyl-4,5,6,7-tetrahydro-2H-pyrazolo[4,3-c]pyridin-2-yl)methyl)benzo[d]isoxazol-3-yl)benzenesulfonamide]",–
–,≤ 10 µM,"C#CC(=O)NCc1cnn(Cc2cc(OC)c3c(NS(=O)(=O)c4ccc(C(=O)O)cc4OC)noc3c2)c1 [Synthetic Example 65, 3-methoxy-4-(N-(4-methoxy-6-((4-(propiolamidomethyl)-1H-pyrazol-1-yl)methyl)benzo[d]isoxazol-3-yl)sulfamoyl)benzoic acid]",–
≤ 10 µM,–,"C#CC(=O)NCc1cnn(Cc2cc(OC)c3c(NS(=O)(=O)c4cc(C(=O)NC)ccc4OC)noc3c2)c1 [compound 85, 4-methoxy-3-(N-(4-methoxy-6-((4-(propiolamidomethyl)-1H-pyrazol-1-yl)methyl)benzo[d]isoxazol-3-yl)sulfamoyl)-N-methylbenzamide]",–
≤ 10 µM,–,"C=CS(=O)(=O)NCCCOCc1cc(OC)c2c(NS(=O)(=O)c3cc(CC)ccc3OC)noc2c1 [compound 90, 5-ethyl-2-methoxy-N-(4-methoxy-6-((3-(vinylsulfonamido)propoxy)methyl)benzo[d]isoxazol-3-yl)benzenesulfonamide]",–
